Assay results published in PubChem BioAssay (NCI).
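Cultured in 96-well plates, cells were exposed to test compound for 48 hours across five concentrations. TGI marks complete inhibition of growth.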

Key:
Experiment in all cases: inhibition of tumour cell growth, NCI panel, 48 h
M14 melanoma = system: M14 melanoma
OVCAR-4 ovarian = system: OVCAR-4 ovarian
UACC-62 melanoma = system: UACC-62 melanoma
SK-MEL-28 melanoma = system: SK-MEL-28 melanoma
SNB-19 CNS = system: SNB-19 CNS
DU-145 prostate = system: DU-145 prostate
SF-295 CNS = system: SF-295 CNS
SNB-75 CNS = system: SNB-75 CNS
SW-620 colon = system: SW-620 colon
MALME-3M melanoma = system: MALME-3M melanoma
UO-31 renal = system: UO-31 renal

| SMILES | TGI (M14 melanoma) [µM] | TGI (OVCAR-4 ovarian) [µM] | TGI (UACC-62 melanoma) [µM] | TGI (SK-MEL-28 melanoma) [µM] | TGI (SNB-19 CNS) [µM] | TGI (DU-145 prostate) [µM] | TGI (SF-295 CNS) [µM] | TGI (SNB-75 CNS) [µM] | TGI (SW-620 colon) [µM] | TGI (MALME-3M melanoma) [µM] | TGI (UO-31 renal) [µM] |
| --- | --- | --- | --- | --- | --- | --- | --- | --- | --- | --- | --- |
| CCOC(=O)c1ccc(NC2Oc3cc4c(cc3C(c3cc(OC)c(OC)c(OC)c3)C2C)OCO4)cc1 (configuration not stated) | > 50.9 | > 64.7 | 64.5 | > 100 | > 100 | > 100 | 2.9 | 0.704 | > 100 | 0.677 | 4.65 |
| CC12CC3c4ccccc4CN1C3(c1ccccc1)OC2=O (configuration not stated) | > 100 | > 100 | > 100 | > 100 | > 100 | > 100 | > 100 | > 100 | > 100 | > 100 | > 100 |
| COC(=O)C1Cc2c(C)cccc2C1=O (configuration not stated) | > 100 | > 100 | > 100 | > 100 | > 100 | > 100 | > 100 | > 100 | > 100 | > 100 | > 100 |
| Oc1c(OCc2nnc(CCCCCCCCc3nnc(COc4ccc5ccccc5c4O)n3Nc3ccccc3)n2Nc2ccccc2)ccc2ccccc12 | 10.9 | 20.7 | 16.5 | 14.3 | 29.8 | 31.9 | 13.9 | 35.5 | 24.6 | 28.8 | 19.6 |
| CC1C(c2ccc(N(C)C)cc2)c2cc3c(cc2OC1N1CCCC1)OCO3 (configuration not stated) | > 100 | > 100 | > 100 | > 100 | > 100 | > 100 | > 94.8 | > 73 | > 100 | > 100 | > 100 |
| Nc1c(Br)cc(-c2cc(Br)c(N)c(Br)c2)cc1Br | > 100 | > 100 | > 100 | > 100 | > 100 | > 100 | > 100 | > 100 | > 100 | > 100 | > 100 |
| N#Cc1[nH]c(=O)n(-c2ccc([N+](=O)[O-])cc2)c1N | > 10 | > 10 | > 10 | > 10 | > 10 | > 10 | > 10 | > 10 | > 10 | > 10 | > 10 |
| CCOC(=O)C1(Cc2ccc(C)cc2)Cc2ccc(C)cc2C1=O (configuration not stated) | 47.3 | > 100 | > 100 | > 100 | > 100 | > 100 | > 86.5 | > 100 | > 100 | > 97.1 | > 100 |
| CCC1(O)C=CC(=O)C=C1 | 40.4 | > 100 | 43.6 | 57.6 | 39.2 | > 64.4 | > 100 | > 96.1 | > 100 | 28.2 | 36.7 |
| O=C(CCSC(CC(=O)c1ccc(Cl)cc1)c1ccc(Cl)cc1)Nc1ccc(Cl)cc1 (configuration not stated) | 28.2 | 35.5 | 21.9 | 29.4 | 26.6 | 27 | 25.8 | 36.4 | 10.5 | 30.6 | 26.9 |
| CN(NC(=O)c1ccco1)C1=NCCCCN1 | > 100 | > 100 | > 100 | > 100 | > 100 | > 100 | > 100 | > 100 | > 100 | > 100 | > 100 |
| N#CC(c1ccc(O)cc1)N1CCN(C(C#N)c2ccc(O)cc2)CC1 (configuration not stated) | > 100 | > 100 | > 100 | > 100 | 75.7 | > 91.5 | > 100 | 48.1 | > 100 | > 100 | > 100 |
| C1=C2SSC3=CC=C(SSc4ccc(s4)SSC4=CC=C(SSC(=C1)S2)S4)S3 | > 100 | > 100 | – | > 100 | > 100 | > 100 | > 100 | > 100 | > 100 | > 100 | > 100 |
| COc1ccc2nc3ccc(OC)cc3c(S(=O)Cc3ccc([N+](=O)[O-])cc3)c2c1 (configuration not stated) | 30.6 | 23.7 | 29.5 | 15.7 | 52.3 | 6.59 | 41.8 | 35.9 | – | 5.18 | 12.9 |
| COc1ccc(C[C@@H]2CN(C(=O)c3ccccc3)[C@H](Cc3ccc(O)cc3)CN2C(=O)c2ccccc2)cc1Br | > 100 | > 100 | – | > 100 | > 100 | > 100 | > 100 | > 100 | > 100 | > 100 | > 100 |
| O=C1CC(NC(=O)C(F)(F)F)c2c(Br)sc(N3CCC(c4ccccc4)CC3)c21 (configuration not stated) | > 100 | 92.6 | > 100 | – | 78.2 | > 100 | 28.7 | > 100 | > 100 | > 100 | > 100 |
| CSc1n[nH]c(N)c1C(=O)Nc1ccc(Cl)cc1 | > 100 | > 100 | > 100 | > 100 | > 100 | > 100 | – | > 100 | > 100 | > 100 | > 100 |
